According to ChEMBL document CHEMBL1144590, “Thienopyridine urea inhibitors of KDR kinase” (Bioorg Med Chem Lett, 2007):

Columns and labels:
[1] = target: T1, Vascular endothelial growth factor receptor 2 (Homo sapiens, UniProt P35968)
[2] = target: T1, Vascular endothelial growth factor receptor 2; format: functional, cell-based, NIH3T3
Mus musculus = assay: Inhibition of estradiol-induced mouse uterine edema […]; format: functional
[3] = Half life in mouse at 3 mg/kg, iv; format: ADME, organism-based; parameters: dose 3 mg/kg, route intravenous; details: in vivo
Cytochrome P450 3A4 = Cytochrome P450 3A4 (Homo sapiens, UniProt P08684); assay: Inhibition of CYP3A4; format: ADME
Chain of Cytochrome P450 3A4 (P08684 whole entry): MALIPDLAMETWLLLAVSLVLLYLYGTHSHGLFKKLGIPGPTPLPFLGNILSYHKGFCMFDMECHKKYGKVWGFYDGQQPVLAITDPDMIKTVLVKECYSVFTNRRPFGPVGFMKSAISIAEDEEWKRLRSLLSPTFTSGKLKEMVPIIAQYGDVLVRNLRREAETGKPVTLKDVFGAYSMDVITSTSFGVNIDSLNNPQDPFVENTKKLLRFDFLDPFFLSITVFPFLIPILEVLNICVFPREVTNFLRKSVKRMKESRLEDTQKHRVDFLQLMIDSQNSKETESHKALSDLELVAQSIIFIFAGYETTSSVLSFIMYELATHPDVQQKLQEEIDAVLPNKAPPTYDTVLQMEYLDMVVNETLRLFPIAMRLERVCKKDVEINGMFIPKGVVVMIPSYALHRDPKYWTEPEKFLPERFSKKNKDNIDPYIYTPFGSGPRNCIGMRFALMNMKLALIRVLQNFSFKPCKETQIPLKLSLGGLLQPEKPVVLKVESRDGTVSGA

T1 sequence (P35968 whole entry): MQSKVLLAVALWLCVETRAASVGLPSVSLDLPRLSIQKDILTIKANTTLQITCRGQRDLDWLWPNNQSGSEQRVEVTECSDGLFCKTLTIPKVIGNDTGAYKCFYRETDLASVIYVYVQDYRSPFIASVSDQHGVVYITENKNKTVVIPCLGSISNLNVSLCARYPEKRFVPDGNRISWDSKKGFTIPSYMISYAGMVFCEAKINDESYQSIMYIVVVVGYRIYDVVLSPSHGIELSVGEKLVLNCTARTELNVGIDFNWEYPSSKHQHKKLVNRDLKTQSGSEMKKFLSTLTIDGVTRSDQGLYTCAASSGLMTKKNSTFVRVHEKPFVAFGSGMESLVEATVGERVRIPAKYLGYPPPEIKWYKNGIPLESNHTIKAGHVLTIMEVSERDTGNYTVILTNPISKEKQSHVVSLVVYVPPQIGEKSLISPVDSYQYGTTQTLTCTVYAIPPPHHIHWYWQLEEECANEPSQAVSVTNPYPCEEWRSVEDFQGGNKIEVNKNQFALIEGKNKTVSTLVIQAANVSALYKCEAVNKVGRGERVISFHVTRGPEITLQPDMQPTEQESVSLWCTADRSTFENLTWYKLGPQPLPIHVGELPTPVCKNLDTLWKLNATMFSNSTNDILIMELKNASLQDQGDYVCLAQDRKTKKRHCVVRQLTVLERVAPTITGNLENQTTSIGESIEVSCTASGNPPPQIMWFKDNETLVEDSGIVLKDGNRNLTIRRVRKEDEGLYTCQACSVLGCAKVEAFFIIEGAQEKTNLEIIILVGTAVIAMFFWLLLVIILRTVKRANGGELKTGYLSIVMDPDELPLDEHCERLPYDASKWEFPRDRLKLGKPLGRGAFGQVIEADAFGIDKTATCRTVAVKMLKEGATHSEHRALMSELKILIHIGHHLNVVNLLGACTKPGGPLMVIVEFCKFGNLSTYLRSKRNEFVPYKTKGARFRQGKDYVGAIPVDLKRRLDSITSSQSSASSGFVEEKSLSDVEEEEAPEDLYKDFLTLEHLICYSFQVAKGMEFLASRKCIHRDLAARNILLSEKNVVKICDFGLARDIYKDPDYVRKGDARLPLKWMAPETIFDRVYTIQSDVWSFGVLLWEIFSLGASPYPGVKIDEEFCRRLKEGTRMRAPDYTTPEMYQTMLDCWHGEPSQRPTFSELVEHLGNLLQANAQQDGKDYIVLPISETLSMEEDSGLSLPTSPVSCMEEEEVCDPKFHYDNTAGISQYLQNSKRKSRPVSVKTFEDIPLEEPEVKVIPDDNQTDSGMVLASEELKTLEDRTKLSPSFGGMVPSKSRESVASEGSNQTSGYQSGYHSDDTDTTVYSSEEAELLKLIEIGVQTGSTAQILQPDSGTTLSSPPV

Nc1nccc2scc(-c3ccc(NC(=O)c4ccccc4)cc3)c12
IC50 [1]: 12000 nM

Nc1nccc2scc(-c3ccc(NC(=O)Nc4cccc5ccccc45)cc3)c12
IC50 [2]: 895 nM
IC50 [1]: 75 nM

Nc1ccc(-c2csc3ccnc(N)c23)cc1
IC50 [1]: 4900 nM

Cc1cccc(NC(=O)Nc2ccc(-c3csc4c(-c5cncc6ccccc56)cnc(N)c34)cc2)c1
IC50 [1]: 388 nM

Cc1cccc(N(C)C(=O)Nc2ccc(-c3csc4ccnc(N)c34)cc2)c1
IC50 [1]: 4900 nM

Cc1cccc(NC(=O)Nc2ccc(-c3csc4c(-c5cncnc5)cnc(N)c34)cc2)c1
IC50 [2]: 1 nM
IC50 [1]: 8 nM

CNC(=O)c1cccc(-c2cnc(N)c3c(-c4ccc(NC(=O)Nc5cccc(C)c5)cc4)csc23)c1
IC50 [2]: 56 nM
IC50 [1]: 11 nM

Cc1cccc(NC(=O)Cc2ccc(-c3csc4ccnc(N)c34)cc2)c1
IC50 [1]: 94 nM

Nc1nccc2scc(-c3ccc(NC(=O)Nc4cccs4)cc3)c12
IC50 [2]: 48 nM
IC50 [1]: 30 nM

Cc1cccc(NC(=O)N(C)c2ccc(-c3csc4ccnc(N)c34)cc2)c1
IC50 [1]: 23 nM

Cc1cccc(NC(=O)Nc2ccc(-c3csc4c(-c5ccccc5)cnc(N)c34)cc2)c1
IC50 [2]: 33 nM
IC50 [1]: 13 nM

Nc1nccc2scc(-c3ccc(NC(=O)NC4CCCC4)cc3)c12
IC50 [1]: 420 nM

Cc1ccc(NC(=O)Nc2ccc(-c3csc4ccnc(N)c34)cc2)cc1
IC50 [2]: 141 nM
IC50 [1]: 26 nM

Nc1nccc2scc(-c3ccc(NC(=O)NC4CCCCC4)cc3)c12
IC50 [1]: 491 nM

Nc1nccc2scc(-c3ccccc3)c12
IC50 [1]: > 12500 nM

CCc1cccc(NC(=O)Nc2ccc(-c3csc4ccnc(N)c34)cc2)c1
IC50 [2]: 32 nM
IC50 [1]: 25 nM

Cc1cccc(NC(=O)Nc2ccc(-c3c(C)sc4ccnc(N)c34)cc2)c1
IC50 [1]: 27 nM

Cc1cccc(NC(=S)Nc2ccc(-c3csc4ccnc(N)c34)cc2)c1
IC50 [1]: 410 nM

N#Cc1cccc(NC(=O)Nc2ccc(-c3csc4ccnc(N)c34)cc2)c1
IC50 [2]: 198 nM
IC50 [1]: 45 nM

Cc1cccc(NC(=O)Nc2ccc(-c3csc4c(-c5cccnc5)cnc(N)c34)cc2)c1
ED50 (Mus musculus): 2.1 mg/kg
half-life [3]: 24 min
IC50 (Cytochrome P450 3A4): 250 nM

Cc1cccc(NC(=O)Nc2ccc(-c3csc4c(-c5ccc(O)cc5)cnc(N)c34)cc2)c1
IC50 [2]: 29 nM
IC50 [1]: 11 nM

Nc1nccc2scc(-c3ccc(NC(=O)Nc4ccccc4)cc3)c12
IC50 [2]: 72 nM
IC50 [1]: 56 nM

Cc1cccc(NC(=O)Nc2cccc(-c3csc4ccnc(N)c34)c2)c1
IC50 [1]: 250 nM

Nc1nccc2scc(-c3ccc(NC(=O)Nc4ccc5ccccc5c4)cc3)c12
IC50 [2]: 15 nM
IC50 [1]: 21 nM

Cc1cc(C)cc(NC(=O)Nc2ccc(-c3csc4ccnc(N)c34)cc2)c1
IC50 [2]: 48 nM
IC50 [1]: 16 nM

Cc1cccc(CC(=O)Nc2ccc(-c3csc4ccnc(N)c34)cc2)c1
IC50 [1]: 520 nM

Cc1ccccc1NC(=O)Nc1ccc(-c2csc3ccnc(N)c23)cc1
IC50 [1]: 152 nM

Nc1nccc2scc(-c3ccc(NC(=O)Nc4ccsc4)cc3)c12
IC50 [2]: 61 nM
IC50 [1]: 38 nM

Cc1ccc(NC(=O)Nc2ccc(-c3csc4ccnc(N)c34)cc2)cc1C
IC50 [2]: 41 nM
IC50 [1]: 10 nM
